Data set [1] has as its target T1, Mtb HtpG (Mycobacterium tuberculosis, UniProt P9WMJ7).
T1 sequence (P9WMJ7 1-647): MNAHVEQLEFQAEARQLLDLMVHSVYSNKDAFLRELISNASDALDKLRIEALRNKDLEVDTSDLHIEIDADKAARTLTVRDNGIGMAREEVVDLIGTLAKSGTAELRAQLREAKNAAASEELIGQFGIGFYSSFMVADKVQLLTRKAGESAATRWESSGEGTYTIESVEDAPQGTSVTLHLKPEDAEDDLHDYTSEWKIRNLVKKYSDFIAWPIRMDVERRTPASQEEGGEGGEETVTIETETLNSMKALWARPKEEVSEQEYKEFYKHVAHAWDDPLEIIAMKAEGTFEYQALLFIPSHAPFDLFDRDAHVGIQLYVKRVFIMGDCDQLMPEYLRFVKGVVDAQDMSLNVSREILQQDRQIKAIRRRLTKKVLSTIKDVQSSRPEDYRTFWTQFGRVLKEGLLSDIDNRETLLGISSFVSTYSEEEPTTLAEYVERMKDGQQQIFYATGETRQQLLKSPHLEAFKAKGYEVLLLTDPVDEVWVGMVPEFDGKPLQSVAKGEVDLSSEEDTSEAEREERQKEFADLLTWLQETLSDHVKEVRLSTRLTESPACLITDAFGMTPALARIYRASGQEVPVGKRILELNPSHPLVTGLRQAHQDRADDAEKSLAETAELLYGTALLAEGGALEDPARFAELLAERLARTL
The data set can be described thus: […]. In kind it is binding.

The target in data set [2] is yeast Hsp90 (S. cerevisiae Hsp82) (Saccharomyces cerevisiae, UniProt P02829). Description: ATPase activity assay with purified protein. Type of data set: biochemical.
yeast Hsp90 (S. cerevisiae Hsp82), sequence (P02829 whole entry): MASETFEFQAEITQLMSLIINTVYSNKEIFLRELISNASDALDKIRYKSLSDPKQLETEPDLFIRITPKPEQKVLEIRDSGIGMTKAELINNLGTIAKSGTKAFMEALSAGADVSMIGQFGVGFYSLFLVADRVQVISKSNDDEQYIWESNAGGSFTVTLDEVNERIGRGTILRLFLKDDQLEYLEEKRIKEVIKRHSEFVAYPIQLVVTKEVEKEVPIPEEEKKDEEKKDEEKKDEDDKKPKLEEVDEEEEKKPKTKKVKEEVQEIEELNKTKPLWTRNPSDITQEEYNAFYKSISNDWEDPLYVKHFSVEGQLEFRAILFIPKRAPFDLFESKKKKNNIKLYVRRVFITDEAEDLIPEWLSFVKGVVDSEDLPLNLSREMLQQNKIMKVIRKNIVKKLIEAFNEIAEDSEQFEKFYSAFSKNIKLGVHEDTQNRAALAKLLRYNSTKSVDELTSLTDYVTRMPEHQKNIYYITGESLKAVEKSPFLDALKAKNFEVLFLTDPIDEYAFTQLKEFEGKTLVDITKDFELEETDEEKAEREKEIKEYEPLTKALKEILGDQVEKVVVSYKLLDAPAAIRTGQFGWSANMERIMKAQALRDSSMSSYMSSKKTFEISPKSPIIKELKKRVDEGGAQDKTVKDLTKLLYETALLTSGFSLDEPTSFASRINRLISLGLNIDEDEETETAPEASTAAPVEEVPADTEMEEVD
Data set [3] concerns the molecule itself. The data set can be described thus: SEC.

This is an account of results in paper PMC9007595 (Molecular microbiology, 2020).

As a reminder, the Kd is the equilibrium constant for the complex coming apart. In turn, `COC1=C2C[C@@H](C)C[C@H](OC)[C@H](O)[C@@H](C)/C=C(\C)[C@H](OC(N)=O)[C@@H](OC)/C=C\C=C(/C)C(=O)NC(=CC1=O)C2=O` [GA, geldanamycin] had a Kd in data set [1] of about 15.7 µM. For the same molecule, in data set [2], the “ATPase activity assay with purified protein (Figure S19)” value was “Both proteins exhibited low ATPase activity that was inhibited by GA (Figure S19)”.

B1: purified Mtb HtpG (size exclusion chromatography) (natural protein)
chain: MNAHVEQLEFQAEARQLLDLMVHSVYSNKDAFLRELISNASDALDKLRIEALRNKDLEVDTSDLHIEIDADKAARTLTVRDNGIGMAREEVVDLIGTLAKSGTAELRAQLREAKNAAASEELIGQFGIGFYSSFMVADKVQLLTRKAGESAATRWESSGEGTYTIESVEDAPQGTSVTLHLKPEDAEDDLHDYTSEWKIRNLVKKYSDFIAWPIRMDVERRTPASQEEGGEGGEETVTIETETLNSMKALWARPKEEVSEQEYKEFYKHVAHAWDDPLEIIAMKAEGTFEYQALLFIPSHAPFDLFDRDAHVGIQLYVKRVFIMGDCDQLMPEYLRFVKGVVDAQDMSLNVSREILQQDRQIKAIRRRLTKKVLSTIKDVQSSRPEDYRTFWTQFGRVLKEGLLSDIDNRETLLGISSFVSTYSEEEPTTLAEYVERMKDGQQQIFYATGETRQQLLKSPHLEAFKAKGYEVLLLTDPVDEVWVGMVPEFDGKPLQSVAKGEVDLSSEEDTSEAEREERQKEFADLLTWLQETLSDHVKEVRLSTRLTESPACLITDAFGMTPALARIYRASGQEVPVGKRILELNPSHPLVTGLRQAHQDRADDAEKSLAETAELLYGTALLAEGGALEDPARFAELLAERLARTL
Consider B1, for which the binding result in data set [3] is “binds”.
